Experimental data: patent US20140005163A1 (NOVARTIS AG, priority 2010, published 2014)

Tests used:
[1] = system: PKB Ser473 phosphorylation in Rat1-myr-HA-p110 delta cells; assay: Reverse protein array assay, PKB Ser473 phosphorylation in Rat1-myr-p110 delta cells; assay type: cell-based; settings: read-out: p-PKB IC50
Method in brief: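 Lysates were arrayed at four dilutions, and phospho-PKB Ser473 was quantified by relative fluorescence signal. They came from Rat1-myr-HA-p110 alpha, beta or delta cells exposed for 30 min at 37 °C to an 8-point compound series with 0.2% DMSO constant.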

mTOR = target: T1, mTOR (Homo sapiens, UniProt P42345); assay: Biochemical assay for m-TOR by TR-FRET; settings: 8 μM ATP, 400 nM GFP-4EBP1, 0.5 nM mTOR
T1 construct: purchased Invitrogen Corporation (Carlsbad/CA, USA) PV4753
T1 sequence (P42345 1360-2549 limits assumed): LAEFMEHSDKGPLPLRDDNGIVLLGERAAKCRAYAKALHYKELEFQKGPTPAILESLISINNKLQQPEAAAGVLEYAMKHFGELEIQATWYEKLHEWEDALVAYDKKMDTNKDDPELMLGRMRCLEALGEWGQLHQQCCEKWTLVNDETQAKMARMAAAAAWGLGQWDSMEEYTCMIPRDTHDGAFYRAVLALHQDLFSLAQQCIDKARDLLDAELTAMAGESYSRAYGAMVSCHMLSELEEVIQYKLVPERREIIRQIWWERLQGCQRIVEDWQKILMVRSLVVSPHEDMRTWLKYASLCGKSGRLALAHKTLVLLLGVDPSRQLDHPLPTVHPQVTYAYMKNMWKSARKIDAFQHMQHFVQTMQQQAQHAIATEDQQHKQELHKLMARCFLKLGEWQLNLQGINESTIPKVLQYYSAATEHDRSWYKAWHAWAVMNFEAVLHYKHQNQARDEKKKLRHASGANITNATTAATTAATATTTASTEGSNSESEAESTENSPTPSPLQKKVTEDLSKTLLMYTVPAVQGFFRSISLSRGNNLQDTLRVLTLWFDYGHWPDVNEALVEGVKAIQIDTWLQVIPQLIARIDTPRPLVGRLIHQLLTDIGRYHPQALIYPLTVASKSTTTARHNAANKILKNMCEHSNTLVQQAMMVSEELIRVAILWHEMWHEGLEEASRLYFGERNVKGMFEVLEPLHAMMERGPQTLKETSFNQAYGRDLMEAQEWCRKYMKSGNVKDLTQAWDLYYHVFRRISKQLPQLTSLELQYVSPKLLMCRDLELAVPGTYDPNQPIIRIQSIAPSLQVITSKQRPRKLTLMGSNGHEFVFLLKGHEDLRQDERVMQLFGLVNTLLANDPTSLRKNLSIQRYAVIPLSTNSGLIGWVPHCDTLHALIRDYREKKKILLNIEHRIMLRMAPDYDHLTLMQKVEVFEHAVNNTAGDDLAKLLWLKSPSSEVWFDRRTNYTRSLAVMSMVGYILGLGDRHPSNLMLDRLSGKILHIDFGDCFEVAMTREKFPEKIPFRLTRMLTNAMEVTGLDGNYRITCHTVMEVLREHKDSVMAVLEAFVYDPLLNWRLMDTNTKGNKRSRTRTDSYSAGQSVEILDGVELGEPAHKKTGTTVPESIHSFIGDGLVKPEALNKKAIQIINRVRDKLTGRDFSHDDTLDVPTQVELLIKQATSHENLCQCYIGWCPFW
Method in brief: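 mTOR (0.5 nM) was incubated at rt with ATP (8 μM final) and GFP-4EBP1 (400 nM final) in 50 mM HEPES pH 7.5, 10 mM MnCl2, 50 mM NaCl, 1 mM EGTA, 1 mM DTT. EDTA stop with Tb3+-anti-p4EBP1 [pThr46] antibody (0.5 nM); TR-FRET read 15 min later.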

[2] = system: S6 Ribosomal Protein phosphorylation Ser235/236 in TSC1 null mouse embryo fibroblast (MEF) cells; assay: Reverse protein array assay, S6 Ribosomal Protein phosphorylation Ser235/236 in TSC1 null MEF cells; assay type: cell-based; settings: 1 h, pS6 ribosomal protein Ser235/236, 60 minutes incubation, read-out: p-S6 IC50
Method in brief: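 TSC1−/− MEFs, seeded and held ≥20 h at 37 °C/5% CO2, were exposed to 8-step serial compound dilutions (0.02% DMSO final; DMSO vehicle control) for 60 min at 37 °C. Cells were then lysed on ice for 10 min and lysates spotted onto reverse protein array chips.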

Row | SMILES | IC50 [1] | IC50 (mTOR) | IC50 [2]
1 | COc1ccc(-c2ccc3ncc4c(c3c2)n(-c2cnn(C)c2C)c(=O)n4C)cn1 [Example 2.9, 1-(1,5-Dimethyl-1H-pyrazol-4-yl)-8-(6-methoxy-pyridin-3-yl)-3-methyl-1,3-dihydro-imidazo[4,5-c]quinolin-2-one] | 165 nM | 151 nM | 27 nM
2 | CCOc1ccc(-c2ccc3ncc4c(c3c2)n(-c2cn(C)nc2Cl)c(=O)n4C)cn1 [Example 3.8, 1-(3-Chloro-1-methyl-1H-pyrazol-4-yl)-8-(6-ethoxy-pyridin-3-yl)-3-methyl-1,3-dihydro-imidazo[4,5-c]quinolin-2-one] | 37 nM | 9 nM | 11 nM
3 | Cc1c(-n2c(=O)n(C)c3cnc4ccc(-c5ccc(N(C)C)nc5)cc4c32)cnn1C [Example 4.4, 8-(6-Dimethylamino-pyridin-3-yl)-1-(1,5-dimethyl-1H-pyrazol-4-yl)-3-methyl-1,3-dihydro-imidazo[4,5-c]quinolin-2-one] | 155 nM | 100 nM | 10 nM
4 | Cc1nn(C(C)C)cc1-n1c(=O)n(C)c2cnc3ccc(-c4cnc(N(C)C)nc4)cc3c21 [Example 6.1, 8-(2-Dimethylamino-pyrimidin-5-yl)-1-(1-isopropyl-3-methyl-1H-pyrazol-4-yl)-3-methyl-1,3-dihydro-imidazo[4,5-c]quinolin-2-one] | 90 nM | 30 nM | 33 nM
5 | Cc1nn(C)cc1-n1c(=O)n(C)c2cnc3ccc(-c4cncc(S(C)(=O)=O)c4)cc3c21 [Example 22, 1-(1,3-Dimethyl-1H-pyrazol-4-yl)-8-(5-methanesulfonyl-pyridin-3-yl)-3-methyl-1,3-dihydro-imidazo[4,5-c]quinolin-2-one] | 297 nM | 121 nM | 27 nM
6 | Cc1nn(CC(=O)N(C)C)c(C)c1-n1c(=O)n(C)c2cnc3ccc(-c4cnc(N)c(C(F)(F)F)c4)cc3c21 [Example 25.2, 2-{4-[8-(6-Amino-5-trifluoromethyl-pyridin-3-yl)-3-methyl-2-oxo-2,3-dihydro-imidazo[4,5-c]quinolin-1-yl]-3,5-dimethyl-pyrazol-1-yl}-N,N-dimethyl-acetamide] | 247 nM | 152 nM | 6 nM
7 | Cc1nn(C)c(C)c1-n1c(=O)n(C)c2cnc3ccc(-c4cnc(N)c(C(F)(F)F)c4)cc3c21 [Example 25.3, 8-(6-Amino-5-trifluoromethyl-pyridin-3-yl)-3-methyl-1-(1,3,5-trimethyl-1H-pyrazol-4-yl)-1,3-dihydro-imidazo[4,5-c]quinolin-2-one] | 59 nM | 116 nM | 2 nM
8 | Cc1nn(C(C)C)cc1-n1c(=O)n(C)c2cnc3ccc(-c4cnc(N)c(C(F)(F)F)c4)cc3c21 [Example 25.4, 8-(6-Amino-5-trifluoromethyl-pyridin-3-yl)-1-(1-isopropyl-3-methyl-1H-pyrazol-4-yl)-3-methyl-1,3-dihydro-imidazo[4,5-c]quinolin-2-one] | 9 nM | 6 nM | < 0.5 nM
9 | Cc1noc(C)c1-n1c(=O)n(C)c2cnc3ccc(-c4cnc(N)c(C(F)(F)F)c4)cc3c21 [Example 25.5, 8-(6-Amino-5-trifluoromethyl-pyridin-3-yl)-1-(3,5-dimethyl-isoxazol-4-yl)-3-methyl-1,3-dihydro-imidazo[4,5-c]quinolin-2-one] | 157 nM | 432 nM | 8 nM
10 | Cc1nn(C)cc1-n1c(=O)n(C)c2cnc3ccc(-c4cc(O)cc(C(F)(F)F)c4)cc3c21 [Example 34, 1-(1,3-Dimethyl-1H-pyrazol-4-yl)-8-(3-hydroxy-5-trifluoromethyl-phenyl)-3-methyl-1,3-dihydro-imidazo[4,5-c]quinolin-2-one] | 202 nM | 133 nM | 3.56 nM
11 | Cc1nn(C)cc1-n1c(=O)n(C)c2cnc3ccc(-c4cnc5[nH]ccc5c4)cc3c21 [Example 36, 1-(1,3-dimethyl-1H-pyrazol-4-yl)-3-methyl-8-(1H-pyrrolo[2,3-b]pyridin-5-yl)-1,3-dihydro-imidazo[4,5-c]quinolin-2-one] | 8 nM | < 3 nM | < 0.5 nM
12 | Cc1nn(C)cc1-n1c(=O)n(C)c2cnc3ccc(-c4ccc(OCC5CC5)nc4)cc3c21 [Example 42, 8-(6-Cyclopropylmethoxy-pyridin-3-yl)-1-(1,3-dimethyl-1H-pyrazol-4-yl)-3-methyl-1,3-dihydro-imidazo[4,5-c]quinolin-2-one] | 158 nM | 65 nM | 3 nM
13 | CNC(=O)c1ccc(-c2ccc3ncc4c(c3c2)n(-c2cn(C)nc2Cl)c(=O)n4C)cc1 [Example 43.2, 4-[1-(3-Chloro-1-methyl-1H-pyrazol-4-yl)-3-methyl-2-oxo-2,3-dihydro-1H-imidazol[4,5-c]quinolin-8-yl]-N-methyl-benzamide] | 12 nM | 4 nM | < 0.5 nM
14 | Cc1nn(C)cc1-n1c(=O)n(C)c2cnc3ccc(-c4ccc5c(c4)CCN5C)cc3c21 [Example 50, 1-(1,3-Dimethyl-1H-pyrazol-4-yl)-3-methyl-8-(1-methyl-2,3-dihydro-1H-indol-5-yl)-1,3-dihydro-imidazo[4,5-c]quinolin-2-one] | 570 nM | 157 nM | 91 nM
15 | CCOc1cccc(-c2ccc3ncc4c(c3c2)n(-c2cn(C)nc2C)c(=O)n4C)c1 [Example 57, 1-(1,3-Dimethyl-1H-pyrazol-4-yl)-8-(3-ethoxy-phenyl)-3-methyl-1,3-dihydro-imidazo[4,5-c]quinolin-2-one] | 288 nM | 322 nM | 5 nM
16 | COc1ncc(-c2ccc3ncc4c(c3c2)n(-c2cn(C)nc2C)c(=O)n4C)cc1N(C)C(C)=O [Example 62, N-{5-[1-(1,3-Dimethyl-1H-pyrazol-4-yl)-3-methyl-2-oxo-2,3-dihydro-1H-imidazo[4,5-c]quinolin-8-yl]-2-methoxy-pyridin-3-yl}-N-methyl-acetamide] | 276 nM | 642 nM | 98 nM
17 | CNc1ncc(-c2ccc3ncc4c(c3c2)n(-c2c(C)nn(C)c2C)c(=O)n4C)cn1 [Example 80.2] | 323 nM | 120 nM | 28 nM
18 | Cc1nn(C)cc1-n1c(=O)n(C)c2cnc3ccc(-c4cnc(N)nc4)cc3c21 [Example 81.1, 8-(2-Amino-pyrimidin-5-yl)-1-(1,3-dimethyl-1H-pyrazol-4-yl)-3-methyl-1,3-dihydro-imidazo[4,5-c]quinolin-2-one] | 11 nM | 4 nM | 1.69 nM
19 | Cc1nn(C)cc1-n1c(=O)n(C)c2cnc3ccc(-c4cccc(OC(C)C)c4F)cc3c21 [Example 83, 1-(1,3-Dimethyl-1H-pyrazol-4-yl)-8-(2-fluoro-3-isopropoxy-phenyl)-3-methyl-1,3-dihydro-imidazo[4,5-c]quinolin-2-one] | 508 nM | 61 nM | 38 nM
20 | COCCOc1cc(-c2ccc3ncc4c(c3c2)n(-c2cn(C)nc2C)c(=O)n4C)cnc1C [Example 86.2, 1-(1,3-Dimethyl-1H-pyrazol-4-yl)-8-[5-(2-methoxy-ethoxy)-6-methyl-pyridin-3-yl]-3-methyl-1,3-dihydro-imidazo[4,5-c]quinolin-2-one] | 57 nM | 31 nM | 5 nM
21 | CCNc1cc(-c2ccc3ncc4c(c3c2)n(-c2cn(C)nc2Cl)c(=O)n4C)cnc1OC [Example 90.1, 1-(3-Chloro-1-methyl-1H-pyrazol-4-yl)-8-(5-ethylamino-6-methoxy-pyridin-3-yl)-3-methyl-1,3-dihydro-imidazo[4,5-c]quinolin-2-one] | < 5 nM | 5 nM | < 0.5 nM
22 | Cc1nn(C(C)C)cc1-n1c(=O)n(C)c2cnc3ccc(-c4ccc(C(N)=O)nc4)cc3c21 [Example 112, 5-[1-(1-Isopropyl-3-methyl-1H-pyrazol-4-yl)-3-methyl-2-oxo-2,3-dihydro-1H-imidazo[4,5-c]quinolin-8-yl]-pyridine-2-carboxylic acid amide] | 69 nM | 20 nM | 60 nM
23 | CNc1ccc(-c2ccc3ncc4c(c3c2)n(-c2cn(C)nc2Cl)c(=O)n4C)cn1 [Example 118.5, 1-(3-Chloro-1-methyl-1H-pyrazol-4-yl)-3-methyl-8-(6-methylamino-pyridin-3-yl)-1,3-dihydro-imidazo[4,5-c]quinolin-2-one] | 6 nM | < 3 nM | < 0.5 nM
24 | Cc1nn(C)cc1-n1c(=O)n(C)c2cnc3ccc(-c4cnc(N)c(F)c4)cc3c21 [Example 142.2, 8-(6-Amino-5-fluoro-pyridin-3-yl)-1-(1,3-dimethyl-1H-pyrazol-4-yl)-3-methyl-1,3-dihydro-imidazo[4,5-c]quinolin-2-one] | 19 nM | 6 nM | < 0.5 nM
25 | [2H]C([2H])([2H])Nc1ncc(-c2ccc3ncc4c(c3c2)n(-c2c(C)nn(C)c2C)c(=O)n4C)cc1C(F)(F)F [Example 143, 3-Methyl-8-(6-trideuteromethylamino-5-trifluoromethyl-pyridin-3-yl)-1-(1,3,5-trimethyl-1H-pyrazol-4-yl)-1,3-dihydro-imidazo[4,5-c]quinolin-2-one] | 86 nM | 113 nM | 9 nM
